From patent publication US20030207924A1, “Compounds that modulate PPAR activity and methods of preparation” (priority 2002, published 2003) come the findings set out here.

What is called EC50 is the concentration that produces a half-maximal response.

Experiment [1] addresses T1, hPPARβ chimeric receptor (Homo sapiens, UniProt Q03181).
T1 construct: "expression plasmids encoding hPPARα, hPPARβ or mPPARγ chimeric receptors"
T1 sequence (Q03181 171-441 limits assumed): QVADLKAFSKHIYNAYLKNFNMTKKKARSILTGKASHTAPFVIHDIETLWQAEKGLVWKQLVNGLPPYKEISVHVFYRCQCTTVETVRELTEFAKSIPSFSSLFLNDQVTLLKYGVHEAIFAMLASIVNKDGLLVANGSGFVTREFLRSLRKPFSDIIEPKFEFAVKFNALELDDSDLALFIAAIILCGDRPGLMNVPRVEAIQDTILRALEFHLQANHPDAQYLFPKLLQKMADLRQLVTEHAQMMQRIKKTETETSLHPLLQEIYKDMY
As to the kind of experiment: Transient transfection assay in HepG2 cells, Gal4-hPPARβ chimeric receptor, luciferase reporter (Test A). Type of experiment: cell-based. The settings on record: for EC50-β (Hep G2-hBeta EC50): HepG2 cells, hPPARβ chimeric receptor, luciferase reporter, 24 hours. How it is done: (§1) 1. Test A. Transient Transfections Assay Using the HepG2 Hepatoma Cell Line.
(§2) HepG2 cells were transiently transfected with an expression plasmids encoding hPPARα, hPPARβ or mPPARγ chimeric receptors and a reporter containing the yeast upstream activating sequence (UAS) upstream of the viral E1B promoter controlling a luciferase reporter gene. In addition, the plasmid pRSVβ-gal was used to control for transfection efficiency. HepG2 cells were grown in DMEM supplemented with 10% FBS and […] non-essential amino acid. On the first day, cells were split into 100 mm dishes at 2.5×10^6/dish and incubated overnight at 37° C./5% CO2. On the second day the cells were transiently transfected with plasmid DNA encoding a chimeric receptor, the luciferase reporter gene; and β-gal. For each 100 mm dish, 15 μg of lucifease reporter (PG5E1b) DNA, 15 μg of Gal4-PPAR chimeric receptor DNA, and 1.5 μg of β-gal plasmid DNA were mixed with 1.4 ml of opti-MEM in the tube. 28 μl of LipoFectamine-2000 reagent was added to 1.4 ml of opti-MEM in the tube, and incubate for 5 min at RT. The diluted Lipofectamine-2000 reagent was combined with the DNA mixture, and incubate for 20 min at RT. After fresh medium was added to each 100 mm dish of cells, 2.8 ml of Lipofectamine2000-DNA mixture was added dropwise to the 100 mm dish containing 14 ml of medium, and incubate 37° C. overnight. On day three cells were trypsinized off the 100 mm dishes and re-plated on 96 well plates. Cells were plated at 2.5×10^4 cells per well in 150 μl of media and 50 μl of compound diluted by media was added. The test compounds added were in the range from 50 μM to 50 pM. After addition of compounds, the plates were incubated at 37° C. for 24 hours. Subsequently cells were washed with once with 100 μl of PBS, lysed, and processed for measuring luciferase and β-gal activity using Dual-Light luciferase kit from Tropix®, according to the manufacturer's recommendations, on an EG&G Bethold MicroLumat LB96P luminometer. EC50 values were obtained using the GraphPad Prism™ program.
In general terms: Reporter assays use an easily measured gene product as a stand-in for the process of interest.

The target of experiment [2] is T2, hPPARα chimeric receptor (Homo sapiens, UniProt Q07869).
T2 construct: "expression plasmids encoding hPPARα, hPPARβ or mPPARγ chimeric receptors"
T2 sequence (Q07869 200-468 limits assumed): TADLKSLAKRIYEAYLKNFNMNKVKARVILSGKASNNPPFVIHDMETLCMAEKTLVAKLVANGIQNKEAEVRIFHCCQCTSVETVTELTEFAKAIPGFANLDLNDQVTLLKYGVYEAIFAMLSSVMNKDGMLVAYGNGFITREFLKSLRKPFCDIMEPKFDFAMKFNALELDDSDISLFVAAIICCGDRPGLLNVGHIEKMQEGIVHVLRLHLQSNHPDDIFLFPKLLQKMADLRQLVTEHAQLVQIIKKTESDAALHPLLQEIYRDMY
In words: Transient transfection assay in HepG2 cells, Gal4-hPPARα chimeric receptor, luciferase reporter (Test A). The settings on record: HepG2 cells, hPPARα chimeric receptor, luciferase reporter, 24 hours; read-out: EC50-α (Hep G2-hAlpha EC50). It counts as cell-based. On the procedure:
as §1
as §2, with “program. […] Accordingly, the compounds of the present invention should find considerable therapeutic applications for hypercholesterolemia and hyperlipidemia.” for “program.”

The structures appear in SMILES notation.

Turning to `Cc1nc(-c2ccc(C(F)(F)F)cc2)sc1CSc1ccc([C@@H]2CC2C(=O)O)cc1` (stereo in doubt) [Example 12, 2-{4-[4-Methyl-2-(4-trifluoromethyl-phenyl)-thiazol-5-ylmethylsulfanyl]-phenyl}-cyclopropanecarboxylic acid], the values for the concentration giving a half-maximal response (EC50) in experiment [1] and in experiment [2] were 303 nM and 135 nM, respectively.
`Cc1cc(SCc2sc(-c3ccc(C(F)(F)F)cc3)nc2C)c(C)cc1OCC(=O)O` [Example 1, {2,5-Dimethyl-4-[4-methyl-2-(4-trifluoromethyl-phenyl)-thiazol-5-ylmethylsulfanyl]-phenoxy}-acetic acid]: the concentration for a half-maximal effect (EC50) amounted to 14.4 nM in experiment [1] and 42 nM in experiment [2].
Turning to `CCc1cc(OCC(=O)O)c(C)cc1SCc1sc(-c2ccc(C(F)(F)F)cc2)nc1C` [Example 2, {5-Ethyl-2-methyl-4-[4-methyl-2-(4-trifluoromethyl-phenyl)-thiazol-5-ylmethylsulfanyl]-phenoxy}-acetic acid], the EC50 came out at 361 nM in experiment [1] and 1230 nM in experiment [2].
For `Cc1cc(SCc2sc(-c3ccc(C(F)(F)F)cc3)nc2C)c(C(C)C)cc1OCC(=O)O` [Example 3, {5-Isopropyl-2-methyl-4-[4-methyl-2-(4-trifluoromethyl-phenyl)-thiazol-5-ylmethylsulfanyl]-phenoxy}-acetic acid] the same measures were 1280 nM and 538 nM.
Turning to `Cc1cc(SCc2sc(-c3ccc(C(F)(F)F)cc3)nc2C)cc(C)c1OCC(=O)O` [Example 4, {2,6-Dimethyl-4-[4-methyl-2-(4-trifluoromethyl-phenyl)-thiazol-5-ylmethylsulfanyl]-phenoxy}-acetic acid], the 50% effective concentration (EC50) in experiment [1] amounted to 23.4 nM; in experiment [2], 161 nM.
Regarding `COc1cc(OCC(=O)O)c(C)cc1SCc1sc(-c2ccc(C(F)(F)F)cc2)nc1C` [Example 5, {5-Methoxy-2-methyl-4-[4-methyl-2-(4-trifluoromethyl-phenyl)-thiazol-5-ylmethylsulfanyl]-phenoxy}-acetic acid], the figures for the concentration giving a half-maximal response (EC50) in experiment [1] and in experiment [2] were 2.3 nM and 121 nM, respectively.
On to `COc1cc(SCc2sc(-c3ccc(C(F)(F)F)cc3)nc2C)c(C)cc1OCC(=O)O` [Example 6, {2-Methoxy-5-methyl-4-[4-methyl-2-(4-trifluoromethyl-phenyl)-thiazol-5-ylmethylsulfanyl]-phenoxy}-acetic acid], for which the EC50 in experiment [1] was 1240 nM; in experiment [2], 1390 nM.
In the case of `Cc1cc(OCC(=O)O)cc(C)c1SCc1sc(-c2ccc(C(F)(F)F)cc2)nc1C` [Example 7, {3,5-Dimethyl-4-[4-methyl-2-(4-trifluoromethyl-phenyl)-thiazol-5-ylmethylsulfanyl]-phenoxy}-acetic acid], the values for the EC50 in experiment [1] and in experiment [2] were 473 nM and 1340 nM, respectively.
As for `COc1cc(OCC(=O)O)cc(C)c1SCc1sc(-c2ccc(C(F)(F)F)cc2)nc1C` [Example 8, {3-Methoxy-5-methyl-4-[4-methyl-2-(4-trifluoromethyl-phenyl)-thiazol-5-ylmethylsulfanyl]-phenoxy}-acetic acid], the EC50 in experiment [1] is 45.3 nM; in experiment [2], 840 nM.
With `Cc1cc(OCC(=O)O)c(C(C)C)cc1SCc1sc(-c2ccc(C(F)(F)F)cc2)nc1C` [Example 9, {2-Isopropyl-5-methyl-4-[4-methyl-2-(4-trifluoromethyl-phenyl)-thiazol-5-ylmethylsulfanyl]-phenoxy}-acetic acid], the results for the EC50 in experiment [1] and in experiment [2] were 891 nM and 5750 nM, respectively.
For `Cc1nc(-c2ccc(C(F)(F)F)cc2)sc1CSc1ccc(C(C)(C)C(=O)O)cc1` [Example 11, 2-Methyl-2-{4-[4-methyl-2-(4-trifluoromethyl-phenyl)-thiazol-5-ylmethylsulfanyl]-phenyl}-propionic acid], the figures for the half-maximal effective concentration (EC50) in experiment [1] and in experiment [2] were 48.8 nM and 507 nM, respectively.
Take `Cc1nc(-c2ccc(C(F)(F)F)cc2)sc1CSc1ccc(C2(C(=O)O)CC2)cc1` [Example 13, 1-{4-[4-Methyl-2-(4-trifluoromethyl-phenyl)-thiazol-5-ylmethylsulfanyl]-phenyl}-cyclopropanecarboxylic acid]: the figures for the concentration for a half-maximal effect (EC50) in experiment [1] and in experiment [2] were 47.6 nM and 1100 nM, respectively.
Consider `Cc1nc(-c2ccc(C(F)(F)F)cc2)sc1CSc1ccc(C2(C(=O)O)CCCC2)cc1` [Example 14, 1-{4-[4-Methyl-2-(4-trifluoromethyl-phenyl)-thiazol-5-ylmethylsulfanyl]-phenyl}-cyclopentanecarboxylic acid], for which the results for the concentration for a half-maximal effect (EC50) in experiment [1] and in experiment [2] were 6740 nM and 992 nM, respectively.
Regarding `Cc1nc(-c2ccc(C(F)(F)F)cc2)sc1CSc1ccc(OCCC(=O)O)cc1` [Example 16, 3-{4-[4-Methyl-2-(4-trifluoromethyl-phenyl)-thiazol-5-ylmethylsulfanyl]-phenoxy}-propionic acid], the concentration for a half-maximal effect (EC50) in experiment [1] was 1950 nM; in experiment [2] it was 1230 nM.
On to `COc1cc(C(C)(C)C(=O)O)ccc1SCc1sc(-c2ccc(C(F)(F)F)cc2)nc1C` [Example 17, 2-{3-Methoxy-4-[4-methyl-2-(4-trifluoromethyl-phenyl)-thiazol-5-ylmethylsulfanyl]-phenyl}-2-methyl-propionic acid], for which the EC50 was found to be 19.9 nM in experiment [1] and 5.5 nM in experiment [2].
In experiment [1], `Cc1nc(-c2ccc(C(F)(F)F)cc2)sc1CSc1ccc(C(C)(C)CC(=O)O)cc1` [Example 18, 3-Methyl-3-{4-[4-methyl-2-(4-trifluoromethyl-phenyl)-thiazol-5-ylmethylsulfanyl]-phenyl}-butyric acid] had a concentration giving a half-maximal response (EC50) of 803 nM.
`CC(=O)Nc1cc(OCC(=O)O)c(C)cc1SCc1sc(-c2ccc(C(F)(F)F)cc2)nc1C` [Example 25, 2-[5-(acetylamino)-2-methyl-4-({4-methyl-2-[4-(trifluoromethyl)phenyl](1,3-thiazol-5-yl)}methylthio)phenoxy]acetic acid]: the “EC50-β (Hep G2-hBeta EC50)” value in experiment [1] was determined as 2 mM.
With `COc1cc(CN2CCCC2C(=O)O)ccc1SCc1sc(-c2ccc(C(F)(F)F)cc2)nc1C` (stereo not shown) [Example 29], the “EC50-β (Hep G2-hBeta EC50)” value in experiment [1] was 2 mM.
On to `Cc1nc(-c2ccc(C(F)(F)F)cc2)sc1CSc1ccc(C2CCC(CC(=O)O)CC2)cc1` (stereo not shown) [Example 33, (4-{4-[4-Methyl-2-(4-trifluoromethyl-phenyl)-thiazol-5-ylmethylsulfanyl]-phenyl}-cyclohexyl)-acetic acid], for which, in experiment [1], the “EC50-β (Hep G2-hBeta EC50)” value turned out to be 2 mM.
